The values that follow come from ChEMBL document CHEMBL1135889, “Novel 4-anilinoquinazolines with C-7 basic side chains: design and structure activity relationship of a series of potent, orally active, VEGF receptor tyrosine kinase inhibitors” (J Med Chem, 2002).

A short description of data set [1]: Bioavailability in rat after oral dose at 50 mg/kg free base. The class given is ADME, organism-based. As to conditions: in vivo.
For data set [2], the target named is Cyclin-dependent kinase 2 (Homo sapiens, UniProt P24941). Briefly: Inhibition of Cyclin-dependent kinase 2 (CDK2) at ATP concentration <Km.
In data set [3] the target is Insulin-like growth factor 1 receptor (Homo sapiens, UniProt P08069). Description: Inhibition of Insulin-like growth factor I receptor at ATP <Km.
A short description of data set [4]: Binding affinity of serum protein in mouse. The class given is ADME, organism-based. As to conditions: read-out: %Bound_Plasma (converted).
A short description of data set [5]: Pharmacokinetic parameters in dog, and clearance value reported after oral administration of 50 mg/Kg. The class given is ADME, organism-based, Canis lupus familiaris. As to conditions: in vivo.
Data set [6] is described as follows: pKa value at a pH of […]. The class given is physicochemical. As to conditions: pH 7.4.
The nature of data set [7]: Pharmacokinetic parameter bioavailability in dog was reported after oral administration of 30 mg/Kg measured on free base. As to conditions: in vivo.
The nature of data set [8]: Binding affinity to serum protein in rat. As to conditions: read-out: %Bound_Plasma (converted). The class given is ADME, organism-based.
The target in another data set is Angiopoietin-1 receptor (Homo sapiens, UniProt Q02763). Description: Inhibition of Tyrosine protein kinase TIE-2 at ATP <Km.
Data set [9] is described as follows: physchem. As to conditions: octanol/water, pH 7.4.
For data set [10], the target named is Serine/threonine-protein kinase AKT (Homo sapiens, UniProt P31751+Q9Y243+P31749). Description: Inhibition of Protein kinase B (AKT) at ATP <Km. The class given is protein assay.
A short description of data set [11]: Pharmacokinetic parameter half-life in dog was reported after intravenous administration of 5 mg/Kg measured on free base. As to conditions: in vivo.
The nature of data set [12]: Pharmacokinetic parameter half-life in rat was reported after intravenous administration of 5 mg/Kg measured on free base. As to conditions: in vivo.
The target in data set [13] is Receptor tyrosine-protein kinase erbB-2 (Homo sapiens, UniProt P04626). Briefly: Inhibition of ERBB2 receptor kinase at ATP concentration <Km.
Data set [14] can be described thus: Plasma levels following administration of 50 mg/Kg perorally and concentration in plasma 6 hr after administration. The class given is ADME, cell-free. As to conditions: po, read-out: Plasma level.
Data set [15] addresses T1, 3-phosphoinositide-dependent protein kinase 1 (Homo sapiens, UniProt O15530).
T1 sequence (O15530 whole entry): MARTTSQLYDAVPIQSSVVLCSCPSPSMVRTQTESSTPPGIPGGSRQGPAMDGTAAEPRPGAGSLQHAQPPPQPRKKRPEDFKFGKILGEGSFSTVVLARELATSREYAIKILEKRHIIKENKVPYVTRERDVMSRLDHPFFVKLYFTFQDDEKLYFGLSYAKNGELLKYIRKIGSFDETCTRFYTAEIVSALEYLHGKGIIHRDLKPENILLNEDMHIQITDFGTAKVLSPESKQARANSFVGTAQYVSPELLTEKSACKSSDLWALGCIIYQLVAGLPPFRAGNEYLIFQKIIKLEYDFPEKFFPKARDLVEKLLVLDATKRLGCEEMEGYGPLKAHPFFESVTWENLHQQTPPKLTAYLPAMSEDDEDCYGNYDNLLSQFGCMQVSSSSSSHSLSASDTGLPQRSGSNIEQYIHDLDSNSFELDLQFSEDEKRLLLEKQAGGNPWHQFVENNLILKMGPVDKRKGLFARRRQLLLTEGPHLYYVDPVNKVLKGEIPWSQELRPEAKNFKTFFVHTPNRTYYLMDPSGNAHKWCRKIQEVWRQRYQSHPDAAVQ
Description: Inhibition of receptor kinase activity against PDK (phospho-inositide dependent kinase) at ATP <Km.

Data set [16] is described as follows: solubility was determined using free base at pH 7.4. The class given is physicochemical. As to conditions: buffer.
For data set [17], the target named is Dual specificity mitogen-activated protein kinase kinase; MEK1/2 (Homo sapiens, UniProt P36507+Q02750). Description: Inhibition of Mitogen activated protein kinase (MEK) at ATP <Km. The class given is protein assay.
Data set [18] in a line: Plasma levels following administration of 50 mg/Kg perorally and concentration of compound in plasma 24 hr after administration. The class given is ADME, cell-free. As to conditions: po, read-out: Plasma level.
Data set [19] is described as follows: physchem. As to conditions: pH 7.4.
The next data set concerns HUVEC. Briefly: Inhibition of basal unstimulated growth of human endothelial cell. The class given is functional, cell-based.
The nature of data set [20]: Plasma levels following administration of 100 mg/Kg perorally and concentration in plasma 24 hr after administration. The class given is ADME, cell-free. As to conditions: po, read-out: Plasma level.
A short description of data set [21]: Plasma levels following administration of 100 mg/Kg perorally and concentration in plasma 6 hr after administration. The class given is ADME, cell-free. As to conditions: po, read-out: Plasma level.
Data set [22] in a line: solubility was determined using free base at pH 7. The class given is physicochemical. As to conditions: buffer.
Data set [23] concerns Mus musculus. Description: Inhibition of Established Calu-6 tumor xenografts implanted subcutaneously in athymic mice measured after 21 days of dosing of 50 mg/kg perorally. As to conditions: Calu-6, 504 h, route oral. The class given is functional.
In data set [24] the test system is Mus musculus. Description: Inhibition of Calu-6 tumor xenografts implanted subcutaneously in athymic mice measured after 21 days of dosing of 100 mg/kg perorally. The class given is functional. As to conditions: Calu-6, 504 h, route oral.
Data set [25] is described as follows: Pharmacokinetic parameter bioavailability in dog was reported after oral administration of 25 mg/Kg measured on free base. As to conditions: in vivo.
The nature of data set [26]: Pharmacokinetic parameter half-life in dog was reported after intravenous administration of 5 mg/Kg measured on free base. As to conditions: in vivo. The source holds these as a separate data set.
The subject of data set [27] is Mus musculus. Description: Inhibition of Established Calu-6 tumor xenografts implanted subcutaneously in athymic mice measured after 21 days of dosing of […] mg/kg perorally. The class given is functional. As to conditions: Calu-6, 504 h, route oral.
The nature of data set [28]: Pharmacokinetic parameter bioavailability in rat was reported after oral administration of 50 mg/Kg measured on free base. The class given is ADME, organism-based. As to conditions: in vivo.
For data set [29], the system named is Mus musculus. Description: Inhibition of Established Calu-6 tumor xenografts implanted subcutaneously in athymic mice measured after 21 days of dosing of 12.5 mg/kg perorally. As to conditions: Calu-6, 504 h, route oral. The class given is functional.
Data set [30] in a line: pKa value at a pH of […].value ranges from […]-[…]. The class given is physicochemical. As to conditions: pH 7.4.

Structures are written as SMILES. ≈ marks a conversion by molar mass, not a printed value.

Receptor tyrosine-protein kinase erbB-2, sequence (P04626 whole entry): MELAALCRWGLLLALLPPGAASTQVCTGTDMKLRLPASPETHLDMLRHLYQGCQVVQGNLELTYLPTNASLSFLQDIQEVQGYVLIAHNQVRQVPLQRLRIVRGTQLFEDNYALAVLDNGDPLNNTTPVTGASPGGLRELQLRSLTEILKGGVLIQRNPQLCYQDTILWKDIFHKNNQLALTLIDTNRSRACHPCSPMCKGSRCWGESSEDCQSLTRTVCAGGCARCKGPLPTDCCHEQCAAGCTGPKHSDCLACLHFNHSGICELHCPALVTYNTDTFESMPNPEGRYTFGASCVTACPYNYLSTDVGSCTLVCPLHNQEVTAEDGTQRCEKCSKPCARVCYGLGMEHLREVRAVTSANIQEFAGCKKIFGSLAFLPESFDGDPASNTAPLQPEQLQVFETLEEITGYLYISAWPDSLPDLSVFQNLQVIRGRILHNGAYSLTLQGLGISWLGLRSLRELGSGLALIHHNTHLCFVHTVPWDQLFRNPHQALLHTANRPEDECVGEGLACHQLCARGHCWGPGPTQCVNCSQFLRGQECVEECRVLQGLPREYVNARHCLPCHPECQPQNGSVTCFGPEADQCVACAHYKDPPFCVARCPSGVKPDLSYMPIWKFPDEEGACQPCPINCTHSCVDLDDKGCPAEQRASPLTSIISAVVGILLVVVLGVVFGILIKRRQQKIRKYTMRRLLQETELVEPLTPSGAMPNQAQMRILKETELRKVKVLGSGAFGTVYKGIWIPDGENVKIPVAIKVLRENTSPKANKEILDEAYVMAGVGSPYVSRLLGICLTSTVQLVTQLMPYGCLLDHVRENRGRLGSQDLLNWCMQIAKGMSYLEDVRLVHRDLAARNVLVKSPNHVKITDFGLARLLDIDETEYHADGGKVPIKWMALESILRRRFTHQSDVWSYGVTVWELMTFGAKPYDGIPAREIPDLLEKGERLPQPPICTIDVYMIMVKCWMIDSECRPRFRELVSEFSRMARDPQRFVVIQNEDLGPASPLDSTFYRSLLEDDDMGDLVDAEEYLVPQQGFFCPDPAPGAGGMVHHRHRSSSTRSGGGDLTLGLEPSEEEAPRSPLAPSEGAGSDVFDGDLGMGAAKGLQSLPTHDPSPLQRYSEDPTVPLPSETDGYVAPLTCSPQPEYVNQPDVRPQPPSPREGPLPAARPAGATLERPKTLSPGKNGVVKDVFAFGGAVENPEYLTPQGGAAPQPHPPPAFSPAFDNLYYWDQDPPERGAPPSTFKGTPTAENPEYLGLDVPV
Angiopoietin-1 receptor, sequence (Q02763 whole entry): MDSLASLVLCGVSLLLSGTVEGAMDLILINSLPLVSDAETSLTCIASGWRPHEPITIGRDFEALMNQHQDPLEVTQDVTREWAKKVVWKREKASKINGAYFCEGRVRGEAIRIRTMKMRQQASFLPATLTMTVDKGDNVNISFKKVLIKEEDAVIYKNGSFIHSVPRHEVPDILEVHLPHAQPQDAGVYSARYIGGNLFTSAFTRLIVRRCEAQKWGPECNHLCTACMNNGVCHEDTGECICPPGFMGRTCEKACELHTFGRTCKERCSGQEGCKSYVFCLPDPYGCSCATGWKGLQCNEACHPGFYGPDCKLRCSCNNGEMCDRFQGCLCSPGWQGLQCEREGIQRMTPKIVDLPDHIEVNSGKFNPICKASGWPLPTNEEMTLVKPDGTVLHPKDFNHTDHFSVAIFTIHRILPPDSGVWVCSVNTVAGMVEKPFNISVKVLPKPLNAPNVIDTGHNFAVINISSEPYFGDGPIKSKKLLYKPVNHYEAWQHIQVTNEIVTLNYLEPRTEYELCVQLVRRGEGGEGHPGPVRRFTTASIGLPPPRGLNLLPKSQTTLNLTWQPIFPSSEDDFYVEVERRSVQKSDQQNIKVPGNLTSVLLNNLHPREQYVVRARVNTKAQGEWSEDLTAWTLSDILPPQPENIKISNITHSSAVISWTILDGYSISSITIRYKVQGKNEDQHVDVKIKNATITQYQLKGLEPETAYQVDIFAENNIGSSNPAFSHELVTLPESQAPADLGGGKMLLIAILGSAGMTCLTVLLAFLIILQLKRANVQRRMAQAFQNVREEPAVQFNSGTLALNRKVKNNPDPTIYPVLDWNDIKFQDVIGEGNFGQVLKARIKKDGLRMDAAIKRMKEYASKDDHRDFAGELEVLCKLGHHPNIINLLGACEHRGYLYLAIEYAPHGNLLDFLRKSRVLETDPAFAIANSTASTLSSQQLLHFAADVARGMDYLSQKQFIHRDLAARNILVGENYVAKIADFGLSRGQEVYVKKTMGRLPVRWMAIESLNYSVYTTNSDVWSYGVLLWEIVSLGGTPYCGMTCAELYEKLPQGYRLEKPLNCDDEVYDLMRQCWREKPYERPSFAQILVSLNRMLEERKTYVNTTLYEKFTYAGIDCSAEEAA
Insulin-like growth factor 1 receptor, sequence (P08069 31-736 limits assumed): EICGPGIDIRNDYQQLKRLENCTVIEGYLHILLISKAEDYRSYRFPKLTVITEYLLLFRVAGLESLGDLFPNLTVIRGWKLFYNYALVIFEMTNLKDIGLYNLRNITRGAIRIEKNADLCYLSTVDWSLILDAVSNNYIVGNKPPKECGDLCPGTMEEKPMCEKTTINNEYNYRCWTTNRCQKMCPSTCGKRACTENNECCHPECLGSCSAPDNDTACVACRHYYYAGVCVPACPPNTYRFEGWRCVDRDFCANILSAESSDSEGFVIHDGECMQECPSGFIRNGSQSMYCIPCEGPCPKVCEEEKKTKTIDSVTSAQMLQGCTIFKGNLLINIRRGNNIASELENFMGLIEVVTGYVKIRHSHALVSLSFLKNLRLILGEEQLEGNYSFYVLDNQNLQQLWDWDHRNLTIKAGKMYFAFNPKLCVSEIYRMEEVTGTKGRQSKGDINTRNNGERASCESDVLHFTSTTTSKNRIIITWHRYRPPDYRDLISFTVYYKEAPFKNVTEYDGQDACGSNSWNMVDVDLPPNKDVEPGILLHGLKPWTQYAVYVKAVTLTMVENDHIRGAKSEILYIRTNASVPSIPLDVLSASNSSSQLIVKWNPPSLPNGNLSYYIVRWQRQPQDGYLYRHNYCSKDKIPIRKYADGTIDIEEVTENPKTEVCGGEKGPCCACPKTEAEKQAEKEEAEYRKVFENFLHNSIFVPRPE
Insulin-like growth factor 1 receptor, sequence (P08069 741-1367 limits assumed): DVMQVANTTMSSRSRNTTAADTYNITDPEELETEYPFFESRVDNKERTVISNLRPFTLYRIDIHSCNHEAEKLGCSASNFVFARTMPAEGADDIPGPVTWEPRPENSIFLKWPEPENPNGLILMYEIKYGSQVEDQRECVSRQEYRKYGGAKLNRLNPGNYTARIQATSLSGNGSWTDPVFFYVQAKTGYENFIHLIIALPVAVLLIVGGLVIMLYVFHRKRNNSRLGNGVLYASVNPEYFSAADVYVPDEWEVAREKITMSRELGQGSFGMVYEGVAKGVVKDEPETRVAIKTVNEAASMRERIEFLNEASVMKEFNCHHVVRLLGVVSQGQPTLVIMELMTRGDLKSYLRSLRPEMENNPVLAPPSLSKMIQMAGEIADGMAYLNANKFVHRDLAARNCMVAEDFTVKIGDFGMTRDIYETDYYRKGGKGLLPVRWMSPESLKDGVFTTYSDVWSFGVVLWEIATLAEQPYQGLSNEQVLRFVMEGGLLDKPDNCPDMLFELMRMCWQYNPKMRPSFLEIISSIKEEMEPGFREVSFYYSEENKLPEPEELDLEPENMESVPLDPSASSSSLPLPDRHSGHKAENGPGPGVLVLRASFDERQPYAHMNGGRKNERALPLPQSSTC

For the molecule `COc1cc2c(Nc3ccc(Br)cc3F)ncnc2cc1OCCn1ccnn1` [ZD-4190 FREE BASE], the bioavailability (commonly dose-corrected exposure relative to a reference, in per cent) in data set [1] is greater than 80%; in [7], less than 5%. For the same molecule, the IC50 (commonly the midpoint of a concentration-inhibition curve) is greater than 10 µM in [2]; greater than 20 µM in data set [3]; greater than 100 µM against Angiopoietin-1 receptor; greater than 20 µM in data set [10]; greater than 100 µM in data set [13]; greater than 20 µM in data set [15]. In addition, in data set [17], the IC50 is greater than 10 µM. Further, the fraction unbound in [4] was 0.02; in data set [8], 0.05. The apparent clearance (CL/F) (as a rule, clearance divided by bioavailability, as obtained after extravascular dosing) in data set [5] is 8.33 mL/min/kg. Besides, the pKa (commonly the negative logarithm of the acid dissociation constant) in data set [6] was determined as 5.3. Moreover, the logD (as a rule, the decadic logarithm of the distribution of all forms, ionised or not, between an organic phase and buffer at a given pH) in the data set “physchem [9]” is 4.6. Besides, the figures for the half-life in data set [11] and in [12] were 1.1 h and 1.3 h, respectively. In addition, in [14], the concentration at 6 h was 14 µM. In addition, the solubility (in general, how much of the substance goes into solution per volume) in data set [16] was found to be 0.7 µM (≈ 0.321 µg/mL). Moreover, the concentration at 24 h in data set [18] came out at 0.2 µM.

In the data set “physchem [19]”, `COc1cc2c(Nc3ccc(Cl)cc3F)ncnc2cc1OCCCN1CCOCC1` gave a pKa of 7.2. For the same molecule, in the data set on HUVEC, the concentration for half-maximal inhibition (IC50) worked out at 2 µM. This molecule also showed a log distribution coefficient (logD) in the data set “physchem [9]” of 3.4. Also, the concentration at 24 h in data set [20] came out at 0.8 µM. Moreover, the concentration at 6 h in data set [21] turned out to be 4 µM. Moreover, the solubility in data set [22] worked out at 20 µM (≈ 8.94 µg/mL).

As to `COc1cc2c(Nc3ccc(Br)cc3F)ncnc2cc1OCC1CCN(C)CC1.Cl`, testing at 50 mg/kg in the data set with Mus musculus [23] gave an inhibition in vivo of 67%. Also, in the data set with HUVEC, the half-inhibitory concentration (IC50) was greater than 3 µM. Testing at 100 mg/kg in the data set on Mus musculus [24] gave an inhibition in vivo of 79%. In “physchem [9]”, this molecule returned a logD of 2.6. Besides, the bioavailability in data set [25] and in data set [28] was greater than 50% throughout. In addition, the half-life (usually how long it takes for the measured level to halve) was 8.3 h in data set [26] and 15 h in data set [12]. The inhibition in vivo (usually the drop in the measured response relative to a control, in per cent) at 25 mg/kg in the data set with Mus musculus [27] was 51%. In addition, in the data set on Mus musculus [29], at 12.5 mg/kg the inhibition in vivo was 36%. Besides, in data set [14], the concentration at 6 h is 5.5 µM. Besides, in data set [16], the solubility worked out at 330 µM. In data set [30], this molecule displayed a pKa of 9.4. In addition, in [18], the concentration at 24 h stood at 3 µM.
